{
  "source": "ChEMBL document CHEMBL5252512",
  "about": "“Recent Progress in the Development of HIV-1 Protease Inhibitors for the Treatment of HIV/AIDS” (J Med Chem, 2016)",
  "data": [
    {"test_system": "Human immunodeficiency virus 1", "assay": "Antiviral activity against darunavir-resistant HIV1 10P infected in phytohemagglutinin-activated human PBMC cells assessed as inhibition of virus-induced cytopathic effect measured after 7 days by MTT assay", "format": "functional, organism-based", "conditions": "Human immunodeficiency virus 1, 10P, 168 h", "units": {"EC50": "nM"}, "values": [
      {"smiles": "COC(=O)N[C@H](C(=O)N[C@@H](Cc1ccccc1)[C@@H](O)CN(Cc1ccc(-c2ccccn2)cc1)NC(=O)[C@@H](NC(=O)OC)C(C)(C)C)C(C)(C)C", "note": "[ATAZANAVIR]", "EC50": 323}
    ]},
    {"test_system": "not listed separately", "assay": "Half life in rat at 1 mg/kg, iv", "format": "ADME, organism-based", "conditions": "in vivo", "units": {"half-life": "h"}, "values": [
      {"smiles": "CC[C@@H](CCC[C@@H](CO)N(CCC(C)C)S(=O)(=O)c1ccc(N)cc1)NC(=O)[C@@H](NC(=O)OC)C(c1ccccc1)c1ccccc1", "half-life": 2.13}
    ]},
    {"test_system": "Human immunodeficiency virus 1", "assay": "Ratio of EC50 for antiviral activity against darunavir-resistant HIV1 10P to EC50 for antiviral activity against wild type HIV1 ERS104pre", "format": "functional", "conditions": "not given", "values": [
      {"smiles": "COC(=O)N[C@H](C(=O)N[C@@H](Cc1ccccc1)[C@@H](O)CN(Cc1ccc(-c2ccccn2)cc1)NC(=O)[C@@H](NC(=O)OC)C(C)(C)C)C(C)(C)C", "note": "[ATAZANAVIR]", "Ratio EC50": 77}
    ]},
    {"test_system": "not listed separately", "assay": "Half life in dog at 1 mg/kg, iv", "format": "ADME, organism-based, Canis lupus familiaris", "conditions": "in vivo", "units": {"half-life": "h"}, "values": [
      {"smiles": "CC[C@@H](CCC[C@@H](CO)N(CCC(C)C)S(=O)(=O)c1ccc(N)cc1)NC(=O)[C@@H](NC(=O)OC)C(c1ccccc1)c1ccccc1", "half-life": 7.4}
    ]},
    {"test_system": "Human immunodeficiency virus 1", "assay": "Ratio of EC50 for antiviral activity against HIV1-G to EC50 for antiviral activity against wild type HIV1 ERS104pre", "format": "functional", "conditions": "not given", "values": [
      {"smiles": "COC(=O)N[C@H](C(=O)N[C@@H](Cc1ccccc1)[C@@H](O)CN(Cc1ccc(-c2ccccn2)cc1)NC(=O)[C@@H](NC(=O)OC)C(C)(C)C)C(C)(C)C", "note": "[ATAZANAVIR]", "Ratio EC50": 7}
    ]},
    {"test_system": "Human immunodeficiency virus 1", "assay": "Ratio of EC50 for antiviral activity against HIV1-B to EC50 for antiviral activity against wild type HIV1 ERS104pre", "format": "functional", "conditions": "not given", "values": [
      {"smiles": "COC(=O)N[C@H](C(=O)N[C@@H](Cc1ccccc1)[C@@H](O)CN(Cc1ccc(-c2ccccn2)cc1)NC(=O)[C@@H](NC(=O)OC)C(C)(C)C)C(C)(C)C", "note": "[ATAZANAVIR]", "Ratio EC50": 174}
    ]},
    {"test_system": "Human immunodeficiency virus 1", "assay": "Ratio of EC50 for antiviral activity against HIV1-TM to EC50 for antiviral activity against wild type HIV1 ERS104pre", "format": "functional", "conditions": "not given", "values": [
      {"smiles": "COC(=O)N[C@H](C(=O)N[C@@H](Cc1ccccc1)[C@@H](O)CN(Cc1ccc(-c2ccccn2)cc1)NC(=O)[C@@H](NC(=O)OC)C(C)(C)C)C(C)(C)C", "note": "[ATAZANAVIR]", "Ratio EC50": 24}
    ]},
    {"test_system": "Human immunodeficiency virus 1", "assay": "Antiviral activity against multidrug-resistant HIV1-MM infected in phytohemagglutinin-activated human PBMC cells assessed as inhibition of virus-induced cytopathic effect measured after 7 days by MTT assay", "format": "functional, organism-based", "conditions": "Human immunodeficiency virus 1, MM, 168 h", "units": {"EC50": "nM"}, "values": [
      {"smiles": "COC(=O)N[C@H](C(=O)N[C@@H](Cc1ccccc1)[C@@H](O)CN(Cc1ccc(-c2ccccn2)cc1)NC(=O)[C@@H](NC(=O)OC)C(C)(C)C)C(C)(C)C", "note": "[ATAZANAVIR]", "EC50": 81}
    ]},
    {"test_system": "Human immunodeficiency virus 1", "assay": "Antiviral activity against multidrug-resistant HIV1-TM infected in phytohemagglutinin-activated human PBMC cells assessed as inhibition of virus-induced cytopathic effect measured after 7 days by MTT assay", "format": "functional, organism-based", "conditions": "Human immunodeficiency virus 1, TM, 168 h", "units": {"EC50": "nM"}, "values": [
      {"smiles": "COC(=O)N[C@H](C(=O)N[C@@H](Cc1ccccc1)[C@@H](O)CN(Cc1ccc(-c2ccccn2)cc1)NC(=O)[C@@H](NC(=O)OC)C(C)(C)C)C(C)(C)C", "note": "[ATAZANAVIR]", "EC50": 56}
    ]},
    {"test_system": "not listed separately", "assay": "Clearance in dog at 1 mg/kg, iv", "format": "ADME, organism-based, Canis lupus familiaris", "conditions": "in vivo", "units": {"clearance": "mL/min/kg"}, "values": [
      {"smiles": "CC[C@@H](CCC[C@@H](CO)N(CCC(C)C)S(=O)(=O)c1ccc(N)cc1)NC(=O)[C@@H](NC(=O)OC)C(c1ccccc1)c1ccccc1", "clearance": 10.1}
    ]},
    {"test_system": "not listed separately", "assay": "Clearance in rat at 2 mg/kg, iv", "format": "ADME, organism-based", "conditions": "in vivo", "units": {"clearance": "mL/min/kg"}, "values": [
      {"smiles": "CC[C@@H](CCC[C@@H](CO)N(CCC(C)C)S(=O)(=O)c1ccc(N)cc1)NC(=O)[C@@H](NC(=O)OC)C(c1ccccc1)c1ccccc1", "clearance": 48.5}
    ]},
    {"test_system": "Human immunodeficiency virus 1", "assay": "Antiviral activity against darunavir-resistant HIV1 20P infected in phytohemagglutinin-activated human PBMC cells assessed as inhibition of virus-induced cytopathic effect measured after 7 days by MTT assay", "format": "functional, organism-based", "conditions": "Human immunodeficiency virus 1, 20P, 168 h", "units": {"EC50": "nM"}, "values": [
      {"smiles": "COC(=O)N[C@H](C(=O)N[C@@H](Cc1ccccc1)[C@@H](O)CN(Cc1ccc(-c2ccccn2)cc1)NC(=O)[C@@H](NC(=O)OC)C(C)(C)C)C(C)(C)C", "note": "[ATAZANAVIR]", "EC50": "> 1000"}
    ]},
    {"test_system": "Human immunodeficiency virus 1", "assay": "Antiviral activity against multidrug-resistant HIV1-B infected in phytohemagglutinin-activated human PBMC cells assessed as inhibition of virus-induced cytopathic effect measured after 7 days by MTT assay", "format": "functional, organism-based", "conditions": "Human immunodeficiency virus 1, B, 168 h", "units": {"EC50": "nM"}, "values": [
      {"smiles": "COC(=O)N[C@H](C(=O)N[C@@H](Cc1ccccc1)[C@@H](O)CN(Cc1ccc(-c2ccccn2)cc1)NC(=O)[C@@H](NC(=O)OC)C(C)(C)C)C(C)(C)C", "note": "[ATAZANAVIR]", "EC50": 450}
    ]},
    {"test_system": "Human immunodeficiency virus 1", "assay": "Ratio of EC50 for antiviral activity against darunavir-resistant HIV1 20P to EC50 for antiviral activity against wild type HIV1 ERS104pre", "format": "functional", "conditions": "not given", "values": [
      {"smiles": "COC(=O)N[C@H](C(=O)N[C@@H](Cc1ccccc1)[C@@H](O)CN(Cc1ccc(-c2ccccn2)cc1)NC(=O)[C@@H](NC(=O)OC)C(C)(C)C)C(C)(C)C", "note": "[ATAZANAVIR]", "Ratio EC50": ">370"}
    ]},
    {"test_system": "Human immunodeficiency virus 1", "assay": "Ratio of EC50 for antiviral activity against HIV1-JSL to EC50 for antiviral activity against wild type HIV1 ERS104pre", "format": "functional", "conditions": "not given", "values": [
      {"smiles": "COC(=O)N[C@H](C(=O)N[C@@H](Cc1ccccc1)[C@@H](O)CN(Cc1ccc(-c2ccccn2)cc1)NC(=O)[C@@H](NC(=O)OC)C(C)(C)C)C(C)(C)C", "note": "[ATAZANAVIR]", "Ratio EC50": ">78"}
    ]},
    {"test_system": "not listed separately", "assay": "AUC in rat at 10 mg/kg, po", "format": "ADME, organism-based", "parameters": "dose 10 mg/kg, route po", "conditions": "in vivo", "units": {"AUC": "µM·h"}, "values": [
      {"smiles": "CC[C@@H](CCC[C@@H](CO)N(CCC(C)C)S(=O)(=O)c1ccc(N)cc1)NC(=O)[C@@H](NC(=O)OC)C(c1ccccc1)c1ccccc1", "AUC": 1.17}
    ]},
    {"test_system": "Human immunodeficiency virus 1", "assay": "Antiviral activity against wild type HIV1 ERS104pre infected in human PBMC cells assessed as inhibition of virus-induced cytopathic effect measured after 7 days by MTT assay", "format": "functional, organism-based", "conditions": "Human immunodeficiency virus 1, ERS104pre, 168 h", "units": {"EC50": "nM"}, "values": [
      {"smiles": "COC(=O)N[C@H](C(=O)N[C@@H](Cc1ccccc1)[C@@H](O)CN(Cc1ccc(-c2ccccn2)cc1)NC(=O)[C@@H](NC(=O)OC)C(C)(C)C)C(C)(C)C", "note": "[ATAZANAVIR]", "EC50": 2.1}
    ]},
    {"test_system": "Human immunodeficiency virus 1", "assay": "Ratio of EC50 for antiviral activity against HIV1-MM to EC50 for antiviral activity against wild type HIV1 ERS104pre", "format": "functional", "conditions": "not given", "values": [
      {"smiles": "COC(=O)N[C@H](C(=O)N[C@@H](Cc1ccccc1)[C@@H](O)CN(Cc1ccc(-c2ccccn2)cc1)NC(=O)[C@@H](NC(=O)OC)C(C)(C)C)C(C)(C)C", "note": "[ATAZANAVIR]", "Ratio EC50": 20}
    ]},
    {"test_system": "Human immunodeficiency virus 1", "assay": "Antiviral activity against multidrug-resistant HIV1-G infected in phytohemagglutinin-activated human PBMC cells assessed as inhibition of virus-induced cytopathic effect measured after 7 days by MTT assay", "format": "functional, organism-based", "conditions": "Human immunodeficiency virus 1, G, 168 h", "units": {"EC50": "nM"}, "values": [
      {"smiles": "COC(=O)N[C@H](C(=O)N[C@@H](Cc1ccccc1)[C@@H](O)CN(Cc1ccc(-c2ccccn2)cc1)NC(=O)[C@@H](NC(=O)OC)C(C)(C)C)C(C)(C)C", "note": "[ATAZANAVIR]", "EC50": 19.4}
    ]},
    {"test_system": "Human immunodeficiency virus 1", "assay": "Antiviral activity against multidrug-resistant HIV1-C infected in phytohemagglutinin-activated human PBMC cells assessed as inhibition of virus-induced cytopathic effect measured after 7 days by MTT assay", "format": "functional, organism-based", "conditions": "Human immunodeficiency virus 1, C, 168 h", "units": {"EC50": "nM"}, "values": [
      {"smiles": "COC(=O)N[C@H](C(=O)N[C@@H](Cc1ccccc1)[C@@H](O)CN(Cc1ccc(-c2ccccn2)cc1)NC(=O)[C@@H](NC(=O)OC)C(C)(C)C)C(C)(C)C", "note": "[ATAZANAVIR]", "EC50": 38.8}
    ]},
    {"test_system": "Human immunodeficiency virus 1", "assay": "Antiviral activity against multidrug-resistant HIV1-JSL infected in phytohemagglutinin-activated human PBMC cells assessed as inhibition of virus-induced cytopathic effect measured after 7 days by MTT assay", "format": "functional, organism-based", "conditions": "Human immunodeficiency virus 1, JSL, 168 h", "units": {"EC50": "nM"}, "values": [
      {"smiles": "COC(=O)N[C@H](C(=O)N[C@@H](Cc1ccccc1)[C@@H](O)CN(Cc1ccc(-c2ccccn2)cc1)NC(=O)[C@@H](NC(=O)OC)C(C)(C)C)C(C)(C)C", "note": "[ATAZANAVIR]", "EC50": "> 211"}
    ]},
    {"test_system": "Human immunodeficiency virus 1", "assay": "Ratio of EC50 for antiviral activity against HIV1-C to EC50 for antiviral activity against wild type HIV1 ERS104pre", "format": "functional", "conditions": "not given", "values": [
      {"smiles": "COC(=O)N[C@H](C(=O)N[C@@H](Cc1ccccc1)[C@@H](O)CN(Cc1ccc(-c2ccccn2)cc1)NC(=O)[C@@H](NC(=O)OC)C(C)(C)C)C(C)(C)C", "note": "[ATAZANAVIR]", "Ratio EC50": 14}
    ]}
  ]
}
